The values below come from article PMC3331904 (2012).

In this assay the target is TORC1 (TOR complex 1 kinase) (Saccharomyces cerevisiae, UniProt P35169). In words: TORC1 in vitro kinase assay. In kind it is biochemical.
Chain of TORC1 (TOR complex 1 kinase) (P35169 whole entry): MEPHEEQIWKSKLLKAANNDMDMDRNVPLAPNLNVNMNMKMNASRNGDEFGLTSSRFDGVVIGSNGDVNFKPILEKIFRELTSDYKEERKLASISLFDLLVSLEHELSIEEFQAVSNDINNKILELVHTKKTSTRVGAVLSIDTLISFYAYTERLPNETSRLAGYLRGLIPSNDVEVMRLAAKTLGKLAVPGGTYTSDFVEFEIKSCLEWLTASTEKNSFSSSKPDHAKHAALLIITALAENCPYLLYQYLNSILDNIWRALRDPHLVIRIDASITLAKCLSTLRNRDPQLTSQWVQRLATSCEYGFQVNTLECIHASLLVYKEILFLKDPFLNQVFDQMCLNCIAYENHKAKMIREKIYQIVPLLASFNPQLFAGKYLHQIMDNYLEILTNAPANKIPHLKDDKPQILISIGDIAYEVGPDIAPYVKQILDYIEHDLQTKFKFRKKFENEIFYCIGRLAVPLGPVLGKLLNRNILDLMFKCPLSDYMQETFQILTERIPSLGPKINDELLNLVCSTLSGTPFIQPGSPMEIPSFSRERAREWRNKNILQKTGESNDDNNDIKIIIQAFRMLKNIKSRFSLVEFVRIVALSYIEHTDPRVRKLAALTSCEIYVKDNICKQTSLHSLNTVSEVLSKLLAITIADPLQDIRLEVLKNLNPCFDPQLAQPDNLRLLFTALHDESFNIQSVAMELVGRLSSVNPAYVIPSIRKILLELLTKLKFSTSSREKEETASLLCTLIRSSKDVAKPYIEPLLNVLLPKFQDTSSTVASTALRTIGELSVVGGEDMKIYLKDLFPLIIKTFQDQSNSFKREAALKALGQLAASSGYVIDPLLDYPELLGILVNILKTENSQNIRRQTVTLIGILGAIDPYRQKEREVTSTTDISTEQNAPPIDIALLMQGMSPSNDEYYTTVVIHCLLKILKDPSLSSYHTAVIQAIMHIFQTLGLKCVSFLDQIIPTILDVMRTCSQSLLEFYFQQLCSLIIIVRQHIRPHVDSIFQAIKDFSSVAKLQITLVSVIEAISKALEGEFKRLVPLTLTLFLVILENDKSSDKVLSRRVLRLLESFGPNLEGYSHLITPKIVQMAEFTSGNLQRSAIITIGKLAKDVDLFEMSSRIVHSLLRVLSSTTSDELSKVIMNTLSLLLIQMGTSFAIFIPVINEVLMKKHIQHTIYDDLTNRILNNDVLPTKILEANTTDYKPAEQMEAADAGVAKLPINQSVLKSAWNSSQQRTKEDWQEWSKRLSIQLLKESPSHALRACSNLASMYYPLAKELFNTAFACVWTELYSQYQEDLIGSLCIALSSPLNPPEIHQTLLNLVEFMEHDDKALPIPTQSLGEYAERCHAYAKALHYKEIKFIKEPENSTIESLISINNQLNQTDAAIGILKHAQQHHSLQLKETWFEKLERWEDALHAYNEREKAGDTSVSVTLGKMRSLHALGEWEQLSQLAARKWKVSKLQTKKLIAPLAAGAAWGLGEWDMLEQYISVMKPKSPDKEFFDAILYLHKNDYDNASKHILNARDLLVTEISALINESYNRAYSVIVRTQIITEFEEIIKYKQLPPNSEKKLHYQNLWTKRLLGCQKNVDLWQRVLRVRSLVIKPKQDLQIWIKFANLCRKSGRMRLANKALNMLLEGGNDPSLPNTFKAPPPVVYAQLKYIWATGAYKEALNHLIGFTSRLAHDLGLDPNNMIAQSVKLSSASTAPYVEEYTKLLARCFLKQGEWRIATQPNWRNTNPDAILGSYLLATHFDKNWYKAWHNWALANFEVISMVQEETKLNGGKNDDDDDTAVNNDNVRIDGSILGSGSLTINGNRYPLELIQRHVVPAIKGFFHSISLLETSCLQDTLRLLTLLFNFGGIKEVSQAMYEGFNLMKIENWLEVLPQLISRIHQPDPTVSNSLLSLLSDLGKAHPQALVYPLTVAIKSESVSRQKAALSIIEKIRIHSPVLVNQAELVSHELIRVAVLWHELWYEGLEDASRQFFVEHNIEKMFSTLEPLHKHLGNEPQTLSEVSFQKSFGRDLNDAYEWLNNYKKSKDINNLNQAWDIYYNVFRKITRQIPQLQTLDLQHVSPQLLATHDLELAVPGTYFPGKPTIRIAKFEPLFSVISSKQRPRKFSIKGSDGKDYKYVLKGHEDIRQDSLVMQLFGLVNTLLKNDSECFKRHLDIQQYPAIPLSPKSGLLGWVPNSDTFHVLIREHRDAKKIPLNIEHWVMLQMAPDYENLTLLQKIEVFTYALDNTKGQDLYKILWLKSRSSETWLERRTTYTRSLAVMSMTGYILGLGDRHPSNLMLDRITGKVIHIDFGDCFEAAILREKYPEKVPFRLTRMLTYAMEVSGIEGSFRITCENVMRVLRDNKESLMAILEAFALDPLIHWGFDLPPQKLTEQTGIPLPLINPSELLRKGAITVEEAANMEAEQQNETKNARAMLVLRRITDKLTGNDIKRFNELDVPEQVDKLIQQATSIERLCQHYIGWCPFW
Chain of TORC1 (TOR complex 1 kinase) (P38873 whole entry partner): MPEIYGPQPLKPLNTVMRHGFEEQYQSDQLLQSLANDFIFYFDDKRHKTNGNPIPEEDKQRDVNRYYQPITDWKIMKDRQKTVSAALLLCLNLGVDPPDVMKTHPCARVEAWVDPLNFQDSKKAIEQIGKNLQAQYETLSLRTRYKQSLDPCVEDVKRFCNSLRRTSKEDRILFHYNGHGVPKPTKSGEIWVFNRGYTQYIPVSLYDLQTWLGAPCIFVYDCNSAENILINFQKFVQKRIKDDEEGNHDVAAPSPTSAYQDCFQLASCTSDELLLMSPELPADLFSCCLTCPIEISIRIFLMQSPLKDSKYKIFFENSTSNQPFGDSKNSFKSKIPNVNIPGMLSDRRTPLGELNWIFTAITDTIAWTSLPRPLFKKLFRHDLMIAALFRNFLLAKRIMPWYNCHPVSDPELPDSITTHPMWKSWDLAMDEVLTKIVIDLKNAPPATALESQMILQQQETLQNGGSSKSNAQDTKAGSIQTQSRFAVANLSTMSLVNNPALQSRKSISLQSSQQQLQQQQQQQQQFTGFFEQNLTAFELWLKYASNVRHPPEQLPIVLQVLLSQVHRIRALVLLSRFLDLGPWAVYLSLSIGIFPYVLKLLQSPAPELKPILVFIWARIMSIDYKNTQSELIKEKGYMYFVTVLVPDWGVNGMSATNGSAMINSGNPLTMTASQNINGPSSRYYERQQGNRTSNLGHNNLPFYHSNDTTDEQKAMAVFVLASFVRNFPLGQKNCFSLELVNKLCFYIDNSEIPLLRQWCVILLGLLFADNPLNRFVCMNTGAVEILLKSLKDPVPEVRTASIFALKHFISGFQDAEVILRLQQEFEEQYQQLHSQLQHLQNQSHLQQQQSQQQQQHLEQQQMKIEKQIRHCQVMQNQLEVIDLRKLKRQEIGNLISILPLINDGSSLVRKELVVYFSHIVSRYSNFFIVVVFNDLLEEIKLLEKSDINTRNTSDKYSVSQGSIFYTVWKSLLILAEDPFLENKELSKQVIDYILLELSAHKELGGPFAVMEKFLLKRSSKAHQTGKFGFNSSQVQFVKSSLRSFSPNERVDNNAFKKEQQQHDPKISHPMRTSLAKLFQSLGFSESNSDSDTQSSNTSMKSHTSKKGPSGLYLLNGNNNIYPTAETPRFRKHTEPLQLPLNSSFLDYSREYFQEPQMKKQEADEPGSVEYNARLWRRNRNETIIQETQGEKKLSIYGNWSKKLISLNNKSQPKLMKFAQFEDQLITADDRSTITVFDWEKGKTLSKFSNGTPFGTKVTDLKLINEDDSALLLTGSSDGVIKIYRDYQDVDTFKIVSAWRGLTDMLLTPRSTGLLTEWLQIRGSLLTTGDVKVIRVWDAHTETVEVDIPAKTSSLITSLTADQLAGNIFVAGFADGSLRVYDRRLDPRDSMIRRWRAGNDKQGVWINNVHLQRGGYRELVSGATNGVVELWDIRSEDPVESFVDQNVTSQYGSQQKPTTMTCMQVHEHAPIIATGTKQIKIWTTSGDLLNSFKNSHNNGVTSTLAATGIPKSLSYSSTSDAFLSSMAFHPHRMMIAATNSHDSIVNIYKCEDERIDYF

The molecule `CNc1nc(N)c([N+](=O)[O-])c(Nc2cccc(F)c2)n1` [CID 3528206] returned a half-inhibitory concentration (IC50) of approximately 150 nM.
